Values of other authors in US20060009509A1, “Progesterone receptor antagonists, contraceptive regimens, and kits” (Wyeth, priority 2004, published 2006).
Like-named read-outs stand apart in the source and are kept apart here.

Tested on: women

CC#C[C@]1(O)CC[C@H]2[C@@H]3CCC4=CC(=O)CCC4=C3[C@@H](c3ccc(N(C)C)cc3)C[C@@]21C [mifepristone]
women who ovulated at least once (1 mg daily, 3-month treatment (Croxatto 1998)): 14 of 21
ovulations, % of cycles (2 mg continuous, 4 months, Edinburgh site (Brown 2002)): 9.6%
ovulations, % of cycles (2 mg continuous, Shanghai site (Brown 2002)): 2.5%
ovulations, % of cycles (5 mg continuous, 4 months, Edinburgh site (Brown 2002)): 5.2%
ovulations, % of cycles (5 mg continuous, Shanghai site (Brown 2002)): 1.2%
prevention of ovulation (continuous dose of 1 mg, study of 11 subjects (Batista 1992)): appeared to prevent ovulation
prevention of ovulation (continuous dose of 1 mg, study with 5 subjects (Croxatto 1993)): not
prevention of ovulation (continuous low doses 2-10 mg, one treatment cycle, about 5 subjects per dose group (Spitz 1993; Ledger 1992)): prevent ovulation
